{
  "source": "paper PMC6934681",
  "about": "“Small molecule allosteric uncoupling of microtubule depolymerase activity from motility in human Kinesin-5 during mitotic spindle assembly” (Scientific Reports, 2019)",
  "target": "T1, Eg5 (human Kinesin-5) (Homo sapiens, UniProt P52732)",
  "T1 construct": "gene KIF11; motor domain (residues 1–369); with microtubules (bovine brain tubulin)",
  "T1 sequence (P52732 1-369)": "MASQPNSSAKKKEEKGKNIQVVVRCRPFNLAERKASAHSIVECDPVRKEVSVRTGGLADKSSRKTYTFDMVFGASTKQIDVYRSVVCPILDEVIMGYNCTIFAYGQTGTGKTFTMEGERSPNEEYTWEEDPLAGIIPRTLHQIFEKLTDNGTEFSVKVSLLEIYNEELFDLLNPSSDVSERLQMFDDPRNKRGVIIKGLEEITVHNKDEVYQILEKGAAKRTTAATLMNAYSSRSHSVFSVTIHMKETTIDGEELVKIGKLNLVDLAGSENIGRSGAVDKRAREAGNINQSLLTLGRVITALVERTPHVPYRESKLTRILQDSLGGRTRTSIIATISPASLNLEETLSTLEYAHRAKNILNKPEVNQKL",
  "test": "microtubule depolymerization turbidity assay with purified Eg5 motor domain, single concentration […] AMPPNP",
  "assay_type": "biochemical",
  "data": [
    {"smiles": "Nc1ncnc2c1ncn2[C@@H]1O[C@H](CO[P@](=O)(O)O[P@](=O)(O)NP(=O)(O)O)[C@@H](O)[C@H]1O", "note": "[AMP, AMPPNP]", "values": [
      {"measurement": "microtubule depolymerization turbidity assay with purified Eg5 motor domain, sin", "value": "treatment with excess orthosteric inhibitor, AMPPNP, completely inhibited its microtubule depolymerization ability"}
    ]}
  ]
}
